One sequence from patent US9540418B2, “Polypeptide specifically binding to rare earth nanoparticles and use thereof” (University of Science and Technology of China, priority 2012, dated 2017) can be followed below.

A short description of assay [1]: Observation of binding form with UCN by TEM and SEM. The conditions noted are these: TEM / SEM after washing off unbound. An excerpt:
The binding forms of RE-1 short peptide and REOB-1 phage with UCN were observed using a transmission electron microscope. The excess unbound polypeptides and phages were washed off from the complex of RE-1 and UCN. The complex was stained with uranium acetate (pH 6.7), and placed on a copper mesh coated with carbon film. A transmission electron microscope TEM (200 kV) (JEM-2100F, JEOL, Japan) was used for observation and imaging (FIG. 5A and FIG. 5B).
The binding form of RE-1 peptide to UCN was observed under a scanning electron microscope. The excess unbound polypeptides were washed off from the complex of RE-1 and UCN. The complex was placed on a copper mesh. A scanning electron microscope SEM (15 kV) (JEOL JSM-6700F, JEOL, Japan) was used for observation and imaging (FIG. 5C).

Assay [2] can be described thus: Binding of FITC-RE-1 to UCP (time, concentration, pH, salt, temperature). Particulars: 10 μg FITC-RE-1, 100 μg UCP. On the procedure: 10 μg of FITC-RE-1 was incubated with 100 μg of UCP for different time periods (2 min, 10 min, 30 min, 120 min, and 720 min). Then, the amount of FITC-RE-1 fluorescent peptide binding to UCP was measured by using fluorescence spectrophotometer.
100 μg of UCP was incubated with FITC-RE-1 at various concentrations (1 μg, 5 μg, 10 μg, and 20 μg) for 1 hr. The excess and unbound peptides were washed off. The amount of FITC-RE-1 fluorescent peptide binding to UCP was measured by using fluorescence spectrophotometer.
10 μg of FITC-RE-1 was incubated with 100 μg of UCP dissolved at different pH values (pH 3, 5, 7, 10) for 1 hr. The excess and unbound peptides were washed off. The amount of FITC-RE-1 fluorescent peptide binding to UCP was measured by using fluorescence spectrophotometer.
10 μg of FITC-RE-1 was incubated with 100 μg of UCP dissolved at different salt ion concentrations (0 M, 0.15 M, 0.3 M, and 0.5 M NaCl) for 1 hr. The excess and unbound peptides were washed off. The amount of FITC-RE-1 fluorescent peptide binding to UCP was measured by using fluorescence spectrophotometer.
10 μg of FITC-RE-1 was incubated with 100 μg of UCP dissolved in water at different temperatures (25° C., 37° C., 55° C., and 80° C.) for 1 hr. The excess and unbound peptides were washed off. The amount of FITC-RE-1 fluorescent peptide binding to UCP was measured by using fluorescence spectrophotometer.

Assay [3] has as its system HeLa-LC3 cells. Put plainly: RE-1 blocking of nanophosphor-induced autophagy (LC3 aggregates and vacuoles). It counts as cell-based. Particulars: nanophosphors coated with RE-1, 24 hr. On the procedure: The rare-earth upconversion nanophosphors (UCN, UCP, UCN-S) coated with RE-1 were prepared as follows: 50 μg, 10 μg, and 350 μg RE-1 was mixed with 100 μg UCN, UCP, or UCN-S, respectively, incubated at 37° C. for 2 hr, centrifuged at 12000 rpm, and then washed with water for 3 times to remove the excess and unbound RE-1 peptides. The resultant precipitate was resuspended in 100 μL water.
HeLa-LC3 cells were inoculated into a 96-well cell culturing plate at a density of about 1-2×10^4 cells/well, and cultured overnight for further use. At first, the medium was replaced with fresh DMEM medium, to which UCN, UCP, or UCN-S with or without the coating of RE-1 peptides was added at different concentrations (0 μg/mL, 10 μg/mL, 100 μg/mL, 1000 μg/mL). After culturing for 24 hr, the fluorescence generated by GFP reporter gene was observed, imaged, and measured under a fluorescence microscope.
(§1) The ability to induce cell autophagy was estimated by determining the numbers of LC3 aggregates and vacuoles.

For assay [4], the system named is HeLa-LC3 cells. Put plainly: RE-1 analogues blocking nanophosphor-induced autophagy (LC3 aggregates and vacuoles). It counts as cell-based. On the procedure:
UCN and UCP coated with RE-1 analogues RE-2, RE-3, or RE-5 were prepared as follows: 50 μg or 10 μg RE-1 analogues RE-2, RE-3, or RE-5 was mixed with 100 μg UCN or UCP, respectively, incubated at 37° C. for 2 hr, centrifuged at 12000 rpm, and then washed with water 3 times to remove the excess and unbound peptides. The resultant precipitate was resuspended in 100 μL water.
HeLa-LC3 cells were inoculated into a 96-well cell culture plate at a density of about 1-2×10^4 cells/well, and cultured overnight for further use. At first, the medium was replaced with fresh DMEM medium, and then 100 μg/mL UCN, UCN+RE-1, UCN+RE-2, UCN+RE-3, or UCN+RE-5 was added. An equal volume of PBS was used as blank. A mixture of 100 μg/mL UCN and 10 mg/mL PEG was used as negative control. A mixture of 100 mM trehalose and 50 μg RE-1 was used as positive control. After culturing for 24 hr, a fluorescence microscope was used to observe, image, and count.
HeLa-LC3 cells were inoculated into a 96-well cell culture plate at a density of about 1-2×10^4 cells/well, and cultured overnight for further use. At first, the medium was replaced with fresh DMEM medium, and then 100 μg/mL UCP, UCP+RE-1, UCP+RE-2, UCP+RE-3, or UCP+RE-5 was added. An equal volume of PBS was used as blank. After culturing for 24 hr, a fluorescence microscope was used to observe, image, and count.
as §1

Assay [5] relates to mice liver. Put plainly: Autophagosome formation in mice livers by transmission electron microscope. It is filed as in vivo, Balb/c mice. Particulars: RE-1 with UCN, PEG with UCN, AP-1 with UCP. Here is the method: Balb/c mice (purchased from SLAC Laboratory Animal (Shanghai, China), 6 weeks old, and weighed 20 g when used) were bred in a sterile housing, and then 300 μg (dosage: 15 mg/kg) UCN, UCN+PEG (containing 10 mg PEG), UCN+RE-1, UCP, UCP+RE-1, or UCP+AP-1 was injected through tail vein. An equal volume of normal saline was injected as a control. After 24 hr, the livers of the mice were removed and subjected to western blotting assay.
The mice livers obtained as described in Example 21 were in situ fixed with 2.5% glutaral-dimethyl arsine buffer (pH 7.4) at 4° C. for 1 hr, then fixed with 2% osmium tetroxide at room temperature for 1 hr, and then dehydrated with ethanol gradients. Then, the cell samples were embedded into epoxy resin (EPON812). The embedded cell samples were cut into ultrathin slices, which were stained with uranyl acetate and lead citrate, and observed and imaged under a transmission electron microscope (JEOL-1230, JEOL, Japan).

On to “ACTARSPWICG [RE-1, RE-0 with terminal amino acids A and G added]”, for which the “binding form on the surface of UCN” value in assay [1] is given as “form a stable peptide coating on the surface of UCN”. Moreover, in assay [2] (2 min), the “binding to UCP at 2 min” value is 50%. The “binding to UCP at 10 min” value in assay [2] (10 min) was “almost binding saturation”. Besides, the “inhibition of cell autophagy induced by UCN, UCP, and UCN-S” value in assay [3] is “significantly inhibited”. In addition, the “rank of ability after coating UCN to inhibit cell autophagy induced by UCN” value in assay [4] (100 μg/mL, 24 hr) was “RE-1>RE-3>RE-5”. In addition, the “inhibition of cell autophagy induced by Tre (trehalose)” value in assay [4] (mixture of 100 mM trehalose and 50 μg RE-1) was “had no inhibition”. Moreover, in assay [5], the “inhibition of autophagosome formation induced by nanophosphors (UCN, UCP) in liver” value is listed as “significantly inhibited”.
